Experimental data reported in patent US20080140138A1, “Inhibition of inflammatory cytokine production by stimulation of brain muscarinic receptors” (priority 2002, published 2008).
Counter-ions that a name gives are not always drawn.

What was measured:
[1] = tested on: carrageenan-induced hindpaw edema; experiment: Carrageenan-induced hindpaw edema; assay type: in vivo, Lewis rats
Procedure: Method of determining CNI-1493 receptor binding. CNI-1493 was tested at a single concentration (10 μM) in a panel of receptor binding assays by NovaScreen Biosciences Corporation (Hanover, Md.). Values were expressed as the percent inhibition of specific binding, and represented the average of duplicate tubes. Method of stereotactic intracerebroventricular injections. A rat model of intracerebroventricular (i.c.v.) injections was established in order to be able to directly deliver pharmacological agents into the brain of rats. This was necessary in order to separate drug effects on peripheral inflammation that occurred through central versus peripheral mechanisms. Lewis rats were anaesthetized with urethane (1 g/kg, i.p.) and xylazine (15 mg/rat, i.m. (intramuscular)). Rats were then placed in a stereotactic head frame (Stoelting, Wood Dale, Ill., USA). The incisor bar was adjusted until the plane defined by the lambda and bregma was parallel to the base plate. For i.c.v. injections the needle of a Hamilton syringe (25 μl) was positioned stereotactically above the lateral ventricle (0.2 mm and 1.5 mm posterior to bregma, 3.2 mm below the dura.) Solutions of the drugs tested were prepared in sterile endotoxin-free water, at the specified concentrations, and a 10-μl injection/rat was administered over 2 min, 1 h prior to either carrageenan injection, or to LPS.
The tested drugs, in either the carrageenan and/or LPS experiments, were: saline control; fluoxetine hydrochloride, (also known as Prozak) (0.01 mg/100 g); muscarine (50 μg/rat, 5 μg/rat, 0.5 μg/rat, 0.05 μg/rat, 0.005 μg/rat); 4-(N-[3-chlorophenyl]carbamoyloxy)-2-butynyltrimethylammonium chloride (also known as McN-A-343) (5 μg/rat); Muscarinic Toxin-3, (also known as MT-3) from Dendroaspis angusticeps snake venom (0.37 μg/rat); nicotine (10 μg/rat); CNI-1493 (1 μg/kg, 50 μg/rat); atropine (1 μg/kg, 5 μg/rat); CNI-1493 plus atropine (1 μg/kg of each of the drugs; 50 μg/rat, 5 μg/rat respectively); naloxone hydrochloride (2 μg/rat), CNI-1493 plus naloxone (50 μg/rat+5 μg/rat respectively); and morphine (20 μg/rat).
Method of carrageenan-induced hindpaw edema. Paw edema was induced in anaesthetized rats by injection of 1% solution of 1-carrageenan (100 μl) into the plantar surface of the left hindpaw. The right hindpaw was injected with the same volume of saline alone (as control). The thickness of the carrageenan-treated and saline-treated hindpaw was measured using a caliper at 3 h post carrageenan, and the difference between paw thickness calculated as an index of inflammation (paw swelling). Method of LPS injections and TNF determination. LPS (15 mg/kg, i.v.) was injected in the tail vein 1 h after drug injection. Blood was obtained 2 h post LPS injection by paraorbital bleeding. Serum TNF concentrations were determined by an L929 bioactivity assay. Method of assessing TNF by the L929 bioactivity assay. L929 cells were suspended in Dulbecco's minimal Eagle's medium (DMEM; GibcoBRL) supplemented with fetal bovine serum (10%; Hyclone) and penicillin/streptomycin (0.5%; Sigma Chemical Co.), and plated at 2×10^4 cells per well in 96-well flat-bottomed microtiter plates. After 24 h, media were respirated and replaced with medium containing cycloheximide (10 μg/ml; Sigma Chemical Co.) and the samples to be assayed/TNF standards. Plates were incubated overnight, at which time cell viability as a function of TNF concentration was assessed by the MTT assay. Absorbance values were converted to units per milliliter by comparison with a standard curve for rat TNF.
In a third set of experiments, rats were injected by i.c.v. means with either saline (n=4), CNI-1493 (5 μg/rat, n=3), CNI-1493 plus atropine (5 μg/rat each), or atropine (5 μg/rat). Carrageenan was given to the animals 1 h later, and paw edema was determined 3 h post carrageenan. […]

LPS-induced serum TNF = LPS-induced serum TNF after i.c.v. drug injection, L929 bioactivity assay; assay type: in vivo, Lewis rats; conditions: i.c.v.; for effect in reducing LPS-induced serum TNF levels: nicotine 10 μg/rat, prozak 0.01 mg/10 g, LPS 15 mg/kg i.v. 1 h later
Procedure: Method of stereotactic intracerebroventricular injections. […] Lewis rats were anaesthetized with urethane (1 g/kg, i.p.) and xylazine (15 mg/rat, i.m. (intramuscular)). Rats were then placed in a stereotactic head frame (Stoelting, Wood Dale, Ill., USA). The incisor bar was adjusted until the plane defined by the lambda and bregma was parallel to the base plate. For i.c.v. injections the needle of a Hamilton syringe (25 μl) was positioned stereotactically above the lateral ventricle (0.2 mm and 1.5 mm posterior to bregma, 3.2 mm below the dura.) Solutions of the drugs tested were prepared in sterile endotoxin-free water, at the specified concentrations, and a 10-μl injection/rat was administered over 2 min, 1 h prior to either carrageenan injection, or to LPS.
In one set of experiments, rats were injected by i.c.v. means with either saline (n=1), CNI-1493 (5 μg/rat, n=3), CNI-1493 plus atropine (5 μg/rat each), or atropine (5 μg/rat). LPS (15 mg/kg, i.v.) was given 1 h later. Blood was collected 2 h post LPS administration. Serum TNF was determined by the L929 assay.

[2] = tested on: carrageenan-induced paw edema; conditions: low doses, direct administration to the brain; cited from earlier work
LPS-induced TNF = LPS-induced TNF in serum and tissues after muscarine, ELISA; assay type: in vivo, rats; conditions: for LPS-induced heart TNF levels: heart tissue
Procedure: Methods of stereotactic intracerebroventricular injection of muscarine into rats and LPS injections were as described in Example 1. TNF levels in serum and tissues were determined using an enzyme-inked immunosorbent assay (ELISA) according to the manufacturere's instructions (R & D Systems (Minneapolis, Minn.)).
Rats were injected by i.c.v. means with either saline (control) or muscarine (0.005 μg/kg body weight, 0.5 μg/kg body weight, 5.0 μg/kg body weight, or 50 μg/kg body weight). LPS was administered 1 hour later. Two hours after LPS administration the rats were sacrificed and blood, heart tissue, and spleen tissue were isolated from the rats. As shown in FIGS. 9A-9C, i.c.v. administration of muscarine inhibited LPS-induced serum, heart, and spleen (peripheral) TNF levels.
Methods of LPS injections were as described in Example 1. Determination of serum and tissue TNF levels were as described in Example 4. Muscarine (or control saline) was intravenously injected into rats at concentrations of 0.05 μg/kg body weight, 0.5 μg/kg body weight, or 5.0 μg/kg body weight.
Rats were injected by i.v. means with either saline (control) or muscarine (0.05 μg/kg body weight, 0.5 μg/kg body weight, or 5.0 μg/kg body weight). LPS was administered 1 hour later. Two hours after LPS administration the rats were sacrificed and blood, liver tissue, heart tissue, and spleen tissue were isolated from the rats and assayed for TNF concentrations. As shown in FIGS. 10A-10D, intravenous administration of muscarine had no effect on LPS-induced serum, liver, heart, and spleen TNF levels.

[3] = muscarine i.c.v. 0.005-50 μg/kg body weight
[4] = muscarine i.v. 0.05, 0.5, 5.0 μg/kg body weight

C[N+](C)(C)CC#CCOC(=O)Nc1cccc(Cl)c1.[Cl-] [McN-A-343, 4-(N-[3-chlorophenyl]carbamoyloxy)-2-butynyltrimethylammonium chloride]
inhibition of paw edema, i.c.v. compared with i.p. administration ([1]; 5 μg/rat i.c.v. versus 5 mg/kg i.p.): comparable effect on inhibition of carrageenan-induced paw edema as a higher dose administered intraperitoneally
inhibition of carrageenan-induced paw edema ([1]; i.c.v., McN-A-343 5 μg/rat, MT-3 0.37 μg/rat): significantly inhibits

CN1[C@@H]2CC[C@H]1C[C@@H](OC(=O)C(CO)c1ccccc1)C2 (stereo partly shown) [atropine]
effect of atropine on CNI-1493 inhibition of LPS-induced serum TNF (LPS-induced serum TNF; CNI-1493 plus atropine, 5 μg/rat each): reversed the inhibitory effect of CNI-1493 to the TNF level of atropine alone
effect of atropine on CNI-1493 inhibition of paw edema ([1]; CNI-1493 plus atropine, 5 μg/rat each, i.c.v.): reverses the effect

C[N+](C)(C)CCOC(N)=O [carbachol]
effect on carrageenan-induced paw edema [2]: attenuation of paw edema

C[C@@H]1O[C@H](C[N+](C)(C)C)C[C@H]1O [muscarine]
effect of vagotomy on muscarine inhibition of paw edema ([1]; muscarine 0.5 μg/rat i.c.v., bilateral cervical vagotomy, P=0.015 SAL v. MUS, P=0.039 MUS v. MUS-VGX): Vagotomy clearly abrogates the inhibitory effects
inhibition of carrageenan-induced paw edema ([1]; muscarine i.c.v. 5, 0.5, 0.05, 0.005 μg/rat): significantly inhibits carrageenan-induced paw edema in a dose-dependent manner
LPS-induced heart TNF levels (LPS-induced TNF; [3]): inhibited
LPS-induced serum TNF levels (LPS-induced TNF; [3]): inhibited
LPS-induced spleen TNF levels (LPS-induced TNF; [3]): inhibited
LPS-induced heart TNF levels (LPS-induced TNF; [4]): no effect
LPS-induced liver TNF levels (LPS-induced TNF; muscarine i.v. 0.05, 0.5, 5.0 μg/kg body weight, liver): no effect
LPS-induced serum TNF levels (LPS-induced TNF; [4]): no effect
LPS-induced spleen TNF levels (LPS-induced TNF; [4]): no effect

CN1CCCC1c1cccnc1 (stereo not shown) [nicotine]
effect in reducing LPS-induced serum TNF levels (LPS-induced serum TNF): Neither nicotine nor prozak had any effect

CNCCC(Oc1ccc(C(F)(F)F)cc1)c1ccccc1 (stereo not shown) [prozak, fluoxetine hydrochloride]
effect in reducing LPS-induced serum TNF levels (LPS-induced serum TNF): Neither nicotine nor prozak had any effect
